Results from PMC7352223, “Mapping of CaM, S100A1 and PIP2-Binding Epitopes in the Intracellular N- and C-Termini of TRPM4” (International Journal of Molecular Sciences, 2020).
Residues, ends and D or L forms follow the SMILES beside them.

The compounds below were run against T1, calmodulin (CaM) (Homo sapiens, UniProt P0DP23) (assay: Steady-state fluorescence anisotropy (FA) binding assay, peptide titrated with CaM). Conditions: carboxyfluorescein-labelled peptide titrated with CaM, 25 mM Tris-HCl pH 7.5, 250 mM NaCl, 200 µM CaCl2, 25 °C, value (SD), anisotropy measured six times per concentration, read-out: KD of peptide/CaM complex, CaM/Ca2+ KD (SD).
T1 construct: made in house
Procedure: First, we studied whether M4nt_WT and M4ct_WT are able to bind CaM and S100A1 at all. The carboxyfluorescein-labelled M4nt_WT and M4ct_WT peptides were titrated with increasing amounts of CaM or S100A1, and FA was measured for each point of titration. The FA increased due to a slower rotational diffusion of the formed complexes, and the fraction bound (Fb) of M4nt_WT and M4ct_WT could be calculated (Figure 2A, Figure 3A, Figure 4A, Figure 5A). Since the specific interactions of M4nt_WT and M4ct_WT with CaM/S100A1 were calcium-dependent, all samples were measured in the presence of 200-μM CaCl2. The fluorescence lifetimes τi of all peptides and their complexes (and all the following characterised peptides/complexes) were constant during all the experiments, with the values close to 3 ns. […] Overall, the FA results indicated the high affinity of M4nt_WT and M4ct_WT peptides to CaM and S100A1. Both M4nt_WT and M4ct_WT peptides thus seemed to represent potential binding epitopes on TRPM4.
The experiments were performed on a K2 spectrofluorometer (ISS, Inc., Champaign, IL, USA) at 25 °C in a cuvette with a 2-mm path length. […] Fluorescence was excited at 490 nm, and polarised emission components III and I⊥, required for the construction of the emission anisotropy, were acquired and averaged quasi-simultaneously at 525 nm by repetitive switching of the emission polariser. […] The anisotropy values r were calculated from the fluorescence intensities in the parallel (III) and perpendicular (I⊥) directions according to the relationship r = (III − GI⊥)/(III + 2GI⊥), where G is a factor correcting for different transmittance of the detection channel for the two measured polarisations (III and I⊥). The G factor was determined in a separate experiment. The measurements were repeated six times for each ligand concentration; the mean anisotropy value was calculated and used for further analysis. […] The Q was evaluated for every binding experiment from the ratio of the fluorescence lifetimes of the bound to the free M4nt, M4ct or PIP2: Q = τbound/τfree. […]

In order of rising Kd:
1. CC(C)C[C@H](NC(=O)[C@@H]1CCCN1C(=O)[C@H](CS)NC(=O)[C@H](CCCNC(=N)N)NC(=O)[C@H](CCCNC(=N)N)NC(=O)[C@H](CC(C)C)NC(=O)[C@H](CC(C)C)NC(=O)[C@H](CC(C)C)NC(=O)[C@H](C)NC(=O)[C@H](C)NC(=O)[C@H](C)NC(=O)[C@H](CCCNC(=N)N)NC(=O)[C@@H](NC(=O)[C@H](CCC(=O)O)NC(=O)[C@H](CO)NC(=O)[C@H](CO)NC(=O)[C@H](CCCNC(=N)N)NC(=O)[C@H](Cc1ccc(O)cc1)NC(=O)[C@H](CS)NC(=O)[C@H](CCC(=O)O)NC(=O)CNC(=O)[C@@H](N)Cc1ccccc1)C(C)C)C(=O)O [M4nt_R640A] (H-FGECYRSSEVRAAALLLRRCPL-OH)  17 µM
2. CC(C)C[C@H](NC(=O)[C@@H]1CCCN1C(=O)[C@H](CS)NC(=O)[C@H](CCCNC(=N)N)NC(=O)[C@H](CCCNC(=N)N)NC(=O)[C@H](CC(C)C)NC(=O)[C@H](CC(C)C)NC(=O)[C@H](CC(C)C)NC(=O)[C@H](CCCNC(=N)N)NC(=O)[C@H](C)NC(=O)[C@H](C)NC(=O)[C@H](CCCNC(=N)N)NC(=O)[C@@H](NC(=O)[C@H](CCC(=O)O)NC(=O)[C@H](CO)NC(=O)[C@H](CO)NC(=O)[C@H](C)NC(=O)[C@H](Cc1ccc(O)cc1)NC(=O)[C@H](CS)NC(=O)[C@H](CCC(=O)O)NC(=O)CNC(=O)[C@@H](N)Cc1ccccc1)C(C)C)C(=O)O [M4nt_R632A] (H-FGECYASSEVRAARLLLRRCPL-OH)  27.2 µM
3. CC(C)C[C@H](NC(=O)[C@@H]1CCCN1C(=O)[C@H](CS)NC(=O)[C@H](C)NC(=O)[C@H](C)NC(=O)[C@H](CC(C)C)NC(=O)[C@H](CC(C)C)NC(=O)[C@H](CC(C)C)NC(=O)[C@H](C)NC(=O)[C@H](C)NC(=O)[C@H](C)NC(=O)[C@H](CCCNC(=N)N)NC(=O)[C@@H](NC(=O)[C@H](CCC(=O)O)NC(=O)[C@H](CO)NC(=O)[C@H](CO)NC(=O)[C@H](CCCNC(=N)N)NC(=O)[C@H](Cc1ccc(O)cc1)NC(=O)[C@H](CS)NC(=O)[C@H](CCC(=O)O)NC(=O)CNC(=O)[C@@H](N)Cc1ccccc1)C(C)C)C(=O)O [M4nt_R640A/R644A/R645A] (H-FGECYRSSEVRAAALLLAACPL-OH)  80 µM
